In patent EP0015584A2, “Nucleotides, methods for their preparation and medicaments” (Gauri, Kailash Kumar, Dr. Prof., priority 1979, dated 1980):

Legend:
[1] = system: resistente Herpesviren; assay: Local treatment of herpes keratitis produced with resistant strains; assay type: in vivo; details: Kaninchen, lokal, bis zu 7 mal täglich, bis zu 11 Tage; JDU-MP 0,1 bis 1 %, ÄDU-MP 0,1 bis 8 %, TFT-MP 0,1 bis 2 %, ARA-A-MP 0,2 bis 2 %, Acycloguanosin-Monophosphat 0,5 bis 5 %
Description: Man züchtet Herpes-Viren in Gewebekulturen von menschlichen Fibroblastzellen über 1 bis 5 Passagen in Gegenwart von Nukleosiden, wie beispielsweise ÄDU (Äthyldesoxyuridin), Konzentration: 20 µg/ml, TFT (Trifluorthymidin) Konzentration 5 bis 10 µg/ml, ARA-A-MP (Arabinofuranosyladenin-Monophosphat),Konzentration 20 µg/ml, Acycloguanosin (ACG), Konzentration 5 bis 30 µg/ml, wobei der Saatvirus auf die Cornea der Tiere (Hamster, Kaninchen) durch Aufträufeln übertragen wird. Zwei Stunden nach der Übertragung erfolgt die Behandlung der Cornea lokal mit den entsprechenden Nukleosiden in den oben angegebenen Konzentrationen. Dabei zeigt sich, daß die Viren für die Nukleoside resistent werden. Die Bewertung der Infektion erfolgt durch Anfärben der Hornhaut mit Fluorescin-Na-Lösung (1 %) und anschließende Farbphotodokumentation.
Die Behandlung der Herpes-Keratitis bei Kaninchen, erzeugt mit den resistenten Stämmen, erfolgt lokal mit folgenden Wirkstoffen: JDU-MP (Joddesoxyuridin-Monophosphat), Konzentration 0,1 bis 1 %, ÄDU-MP (Äthyldesoxyuridin-Monophosphat), Konzentration: 0,1 bis 8 %, TFT-MP (Trifluor- thymidin-Monophosphat), Konzentration: 0,1 bis 2 %, ARA-A-MP (Arabinofuranosyladenin-Monophosphat), Konzentration: 0,2 bis 2 %, Acycloguanosin-Monophosphat, Konzentration: 0,5 bis 5 %, bis zu 7 mal täglich für die Dauer von bis zu 11 Tagen.

[2] = system: Herpes-Simplex-Viren; assay: Inhibition of herpes simplex virus replication in tissue cultures of chick embryo fibroblasts; assay type: cell-based; details: Gewebekulturen von Hühnerembryofibroblasten; Konzentration 10 µg/ml
Description: Dem «-XDU-Monophosphat kommt eine ungewöhnliche Eigenschaft zu, die vom Fachmann nicht vorhersehbar war. Es ist nämlich in der Lage, die Vermehrung von Herpes-Simplex-Viren zu hemmen. In Gewebekulturen von HUhnerembryofibroblasten hemmt α-ÄDU-MP in einer Konzentration von 10 µg/ml deutlich die Virusvermehrung. Unter gleicher Bedingung ist α-ÄDU selbst ohne Wirkung.

[3] = system: DNS; assay: Incorporation into DNA (stated property, no method described); details: acts virostatically; no test described

Row | SMILES | Bekämpfung der durch resistente Herpesviren verursachten Infektion (Herpes-Keratitis) [1] | Hemmung der Virusvermehrung [2] | Einbau in die DNS [3]
1 | O=c1[nH]c(=O)n([C@H]2C[C@H](O)[C@@H](COP(=O)(O)O)O2)cc1I [JDU-MP, Joddesoxyuridin-Monophosphat] | wirksam bekämpfen |  | 
2 | CCc1cn([C@@H]2C[C@H](O)[C@@H](COP(=O)(O)O)O2)c(=O)[nH]c1=O [α-ÄDU-MP, α-5-Äthyl-2'-deoxyuridin-5'-monophosphat] |  | deutlich | ohne in die DNS eingebaut zu werden
3 | Nc1nc2c(ncn2COCCOP(=O)(O)O)c(=O)[nH]1 [Acycloguanosin-Monophosphat] | wirksam bekämpfen |  | 
4 | CCc1cn([C@H]2C[C@H](O)[C@@H](COP(=O)(O)O)O2)c(=O)[nH]c1=O [ÄDU-MP, Äthyldesoxyuridin-Monophosphat] | wirksam bekämpfen |  | 
5 | CCc1cn([C@@H]2C[C@H](O)[C@@H](CO)O2)c(=O)[nH]c1=O [α-ÄDU, α-5-Äthyl-2'-deoxyuridin, reference compound] |  | ohne Wirkung | 
6 | O=c1[nH]c(=O)n([C@H]2C[C@H](O)[C@@H](COP(=O)(O)O)O2)cc1C(F)(F)F [TFT-MP, Trifluor- thymidin-Monophosphat] | wirksam bekämpfen |  | 
